Results reported in publication PMC4212957, “The serodominant secreted effector protein of Salmonella, SseB, is a strong CD4 antigen containing an immunodominant epitope presented by diverse HLA class II alleles” (Immunology, 2014).

Assays:
[1] = tested on: draining lymph node cells of HLA-DR1 transgenic mice; experiment: Murine IFN-γ ELISpot, HLA-DR1 transgenic mice primed with SseB; conditions: mouse, in vivo
Excerpt: Mice transgenic for HLA-DR1 (that is, HLA-DRA1*0101/HLA-DRB1*0101) and HLA-DR4 (that is, HLA-DRA1*0101/HLA-DRB1*0401)[24]–[26] were bred and housed in the Centre for Biological Services at the Hammersmith campus, Imperial College London, UK, in accordance with Home Office regulations and College ethics review. Both transgenic lines are maintained on a C57BL/6 background as homozygotes for knockout of murine MHC Class II H2-Aβ.[27]
HLA-DR1 or HLA-DR4 transgenic mice were primed, by subcutaneous injection into the footpad, with 25 μg of recombinant SseB protein administered as a 1 : 1 emulsion with TiterMax® Gold (CytRx Corporation, Los Angeles, CA). Ten days after priming, popliteal draining lymph nodes were harvested and stimulated, in triplicate, at 2 × 10^5 cells per well with 25 μg of SseB peptide or recombinant protein in pre-coated murine IFN-γ ELISpot plates (2BScientific, Upper Heyford, Oxfordshire, UK). Culture medium was RPMI-1640 containing 2 mM L-glutamine, 50 U/ml penicillin G, 50 μg/ml streptomycin sulphate, 50 μM β-mercaptoethanol and 10% fetal calf serum. Cells were cultured at 37° and in 5% CO2 for 72 hr before assay development using a biotinylated anti-IFN-γ antibody, a horseradish peroxidase detection antibody and TMB substrate (2BScientific). Developed plates were left to dry before spot counting using an AID ELISpot reader (Autoimmun Diagnostika GMBH). Positive epitopes for a given transgenic line were defined as those where more than half of assayed animals gave a greater number of spot-forming cells than 2 SD over the mean of the no protein/peptide control.
Fig 1 Definition of HLA-DR specific T-cell epitopes in DR1 and DR4 transgenic mice. (a) HLA-DR1 (n = 5) and (b) HLA-DR4 (n = 6) mice were footpad primed with ssEB protein in combination with TiterMax® Gold adjuvant. Draining lymph node (DLN) cells were assayed by ELISpot at day 10 for interferon-γ (IFN-γ) T-cell responses to ssEB peptides and protein. A peptide was defined as containing a T-cell epitope for DR1 or DR4 HLA molecules if more than half of the mice assayed gave a greater number of spot-forming cells than 2 SD over the mean of the no peptide/protein control. The 2 SD value for each transgenic line is shown by a dotted line.

[2] = tested on: PBMCs; experiment: Human IFN-γ ELISpot; type: cell-based; conditions: 50 μg/ml peptide, 2 × 10^5 PBMCs, 24 hr; both cohorts; positive if > 2 SD above no-peptide/protein control
Protocol: CD4 T cell responses to SseB were analysed in peripheral blood mononuclear cell (PBMC) samples from healthy control donors with no reported clinical history of Salmonella infection and from donors who had been experimentally challenged with S. Typhi 12 months previously as described elsewhere.[28] Healthy control blood samples were collected with informed consent, under the approval of Ethics REC reference number 08/H0707/173. The S. Typhi challenge participants were recruited by the Oxford Vaccine Group, University of Oxford and the study was performed at the Centre for Clinical Vaccinology and Tropical Medicine, Oxford. Ethics approval was obtained from the NRES Committee South Central – Oxford A (11/SC/0302). Written, informed consent was provided by all participants. A pre-determined bacterial dose (10^4 colony-forming units) of challenge agent (Quailes strain) was delivered by oral ingestion suspended in a sodium bicarbonate solution.[28] Study exclusion criteria included previous typhoid vaccination, residence in a typhoid endemic country for over 6 months and known diagnosis of a probably or confirmed typhoid infection. Blood samples were collected and PBMCs were purified by Lymphoprep density gradient separation.
Human IFN-γ ELISpot assays were run using reagents from Mabtech (Stockholm, Sweden). Briefly, 2 × 10^5 thawed PBMCs were incubated in pre-coated human IFN-γ ELISpot plates, in triplicate, with 50 μg/ml of SseB peptide or recombinant protein (25 μg/ml) in RPMI-1640 medium containing 2 mM L-glutamine, 50 U/ml penicillin G, 50 μg/ml streptomycin sulphate and 10% fetal calf serum. […] Developed plates were left to dry before spot counting using an AID ELISpot reader (Autoimmun Diagnostika GMBH, Straßberg, Germany). […] To better define HLA restriction, human donor ELISpot responses were also analysed in the presence of HLA class II blocking monoclonal antibodies at a final concentration of 25 μg/ml: L243 (anti-HLA-DRα), SPVL-3 (anti-HLA-DQ), B7/21 (anti-HLA-DP) and control mouse IgG. […]

[3] = target: HLA-DRB1*01:01 (Homo sapiens, UniProt P01903+P01911, A100R/D57E/F55L/F60I/F76Y/I96L/L162R/M171V/P40L/Q125E/R42F/V115G/Y59C); conditions: competitive ELISA; ratio IC50 of peptide / IC50 of reference peptide HA 306–318; lower = higher affinity; ratio 20 or less high, 20–100 moderate; three independent experiments
[4] = target: HLA-DRB1*04:01 (Homo sapiens, UniProt P01903+P01911, A100K/A169T/F76Y/I96L/K127E/L162R/M171V/N62H/P40V/Q125Y/R42H/S133A/S149N/S66Y/V115G/V209L/W38E); conditions: competitive ELISA; ratio IC50 of peptide / IC50 of reference peptide HA 306–318; lower = higher affinity; ratio 20 or less high, 20–100 moderate; three independent experiments
[5] = target: HLA-DRB1*11:01 (Homo sapiens, UniProt P01903+P01911, A100R/A169T/A87E/I96F/K41T/L162R/M171V/P40S/Q125H/Q178H/Q39Y/Q99D/R42S/S66Y/T262R/V115G/W38E); conditions: competitive ELISA; ratio IC50 of peptide / IC50 of reference peptide HA 306–318; lower = higher affinity; ratio 20 or less high, 20–100 moderate; three independent experiments
Chain of HLA-DRB1*11:01 (P01903 26-254, other chains not shown): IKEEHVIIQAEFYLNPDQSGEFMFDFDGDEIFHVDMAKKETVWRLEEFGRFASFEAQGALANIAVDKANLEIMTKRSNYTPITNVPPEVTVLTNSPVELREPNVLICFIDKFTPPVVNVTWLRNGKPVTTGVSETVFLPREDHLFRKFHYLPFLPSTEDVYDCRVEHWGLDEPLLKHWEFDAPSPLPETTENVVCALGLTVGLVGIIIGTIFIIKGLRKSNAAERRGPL

Substance	IFN-γ ELISpot recall response / CD4 epitope in HLA-DR1 transgenic mice [1]	human CD4 T-cell IFN-γ ELISpot response to peptide [2]	Relative binding affinity of peptide to HLA-DR molecules DRB1*0101 [3]	Relative binding affinity of peptide to HLA-DR molecules DRB1*0401 [4]	Relative binding affinity of peptide to HLA-DR molecules DRB1*1101 [5]
2: SseB overlapping library peptide, residues 11–30 (QNPIVFKNSFGVSNADTGSQ) [Peptide 2]	carry HLA-DR1 restricted immunodominant CD4 epitopes	largest and most common peptide responses	300	9	> 278
11: SseB overlapping library peptide, residues 101–120 (EDVIKYMRDNGILIDGMTID) [Peptide 11]	carry HLA-DR1 restricted immunodominant CD4 epitopes	largest and most common peptide responses	61	17	> 278
AVLTQLTGLISKWGEISSMIAQKTYS [Peptide 18]	carry HLA-DR1 restricted immunodominant CD4 epitopes	less frequent among the epitopes recognized	2	2	7
